What was measured:
[1] = test system: HT-29 tumor cells; assay: Anti-proliferative activity, SRB assay; format: cell-based, human; settings: Homo sapiens, HT-29, 72 h, 72 hours exposure, read-out: CELLULAR IC50 HT-29
Outline: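 IC50 derived from % inhibition relative to DMSO controls, measured by sulforhodamine B binding (OD570) after TCA fixation. Cells (3,000-15,000 per well) were seeded a day ahead, then treated with graded compound concentrations for 72 hours.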

[2] = target: B-Raf delta1-415 (Homo sapiens, UniProt P15056); assay: B-Raf kinase inhibition (MAPH filter plate, 33P-ATP, MEK1 substrate); settings: read-out: Biochemical IC50 B-Raf
Outline: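 IC50 values come from dilution series (top 10 μM) measured by scintillation counting of 33P-labelled MEK1 retained on H3PO4-washed filters. Reactions ran 1 h at room temperature in pH 7.0 Mops buffer with MgCl2, MnCl2 and DTT, using 12.5 μCi/ml [γ-33P]ATP and B-Raf delta1-415 titrated to 50% turnover.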

B-Raf delta1-415, sequence (P15056 416-766): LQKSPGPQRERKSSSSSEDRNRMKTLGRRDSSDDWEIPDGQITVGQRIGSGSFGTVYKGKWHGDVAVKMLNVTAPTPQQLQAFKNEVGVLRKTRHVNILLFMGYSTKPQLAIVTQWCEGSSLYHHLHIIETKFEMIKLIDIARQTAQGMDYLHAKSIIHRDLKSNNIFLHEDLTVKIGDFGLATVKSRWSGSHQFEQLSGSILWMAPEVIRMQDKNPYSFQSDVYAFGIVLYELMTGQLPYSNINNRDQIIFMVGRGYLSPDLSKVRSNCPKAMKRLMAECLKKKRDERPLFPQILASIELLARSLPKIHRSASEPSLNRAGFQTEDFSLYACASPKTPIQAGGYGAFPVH

IC50 [1] | IC50 [2] | Compound
< 10 µM | < 0.1 µM | COn1c(=O)c(-c2c(C)cccc2C)cc2cnc(Nc3cccnc3)nc21 [Compound 114, 6-(2,6-Dimethylphenyl)-8-methoxy-2-pyrid-3-ylamino-pyrido[2,3-d]pyrimidin-7-one]
< 1 µM | < 0.5 µM | CCN(CC)CCNC(=O)c1cc(Nc2ncc3cc(-c4c(C)cccc4C)c(=O)n(OC)c3n2)cn1C [Compound 84, 6-(2,6-Dimethylphenyl)-2-(5-(2-diethylaminoethyl)aminocarbonyl-1-methyl-pyrrol-3-yl)-amino-8-methoxy-pyrido[2,3-d]pyrimidin-7-one]
< 1 µM | < 0.5 µM | CCCN1CCN(c2ccc(Nc3ncc4cc(-c5c(F)cccc5Cl)c(=O)n(OC)c4n3)cc2)CC1 [Compound 217, 6-(2-Chloro-6-fluorophenyl)-8-methoxy-2-(4-(4-propylpiperazino)phenyl)-amino-pyrido[2,3-d]pyrimidin-7-one]
< 1 µM | > 1 µM | O=c1c(-c2c(F)cccc2Cl)cc2cnc(Nc3ccccc3)nc2n1OCC1CCOCC1 [Compound 164, 6-(2-Chloro-6-fluorophenyl)-2-phenylamino-8-(tetrahydropyran-4-ylmethyl)oxy-pyrido[2,3-d]pyrimidin-7-one]
< 1 µM | < 0.5 µM | COn1c(=O)c(-c2c(Cl)cccc2Cl)cc2cnc(Nc3ccc(CN4CCN(C(C)C)CC4)cc3)nc21 [Compound 166]
< 1 µM | < 0.5 µM | COn1c(=O)c(-c2c(Cl)cccc2Cl)cc2cnc(Nc3ccc(CN4CCOCC4)cc3)nc21 [Compound 100, 6-(2,6-Dichlorophenyl)-8-methoxy-2-(4-morpholinomethylphenyl)-amino-pyrido[2,3-d]pyrimidin-7-one]
< 10 µM | < 0.5 µM | COn1c(=O)c(-c2c(Cl)cccc2Cl)cc2cnc(Nc3cccc(O)c3)nc21 [Compound 219, 6-(2,6-Dichlorophenyl)-2-(3-hydroxyphenyl)-amino-8-methoxy-pyrido[2,3-d]pyrimidin-7-one]
< 1 µM | < 0.1 µM | COn1c(=O)c(-c2c(Cl)cccc2Cl)cc2cnc(Nc3cc(C(=O)N4CCNCC4)n(C)c3)nc21 [Compound 185, 6-(2,6-Dichlorophenyl)-8-methoxy-2-(5-piperazinocarbonyl-1-methyl-pyrrol-3-yl)-amino-pyrido[2,3-d]pyrimidin-7-one]
< 1 µM | < 0.1 µM | O=c1c(-c2c(F)cccc2Cl)cc2cnc(Nc3ccc(N4CCOCC4)cc3)nc2n1OC[C@H]1CCNC1 [Compound 155]
< 1 µM | < 0.5 µM | COn1c(=O)c(-c2c(Cl)cccc2Cl)cc2cnc(Nc3cccc(CN4CC[C@H](O)C4)c3)nc21 [Compound 181, 6-(2,6-Dichlorophenyl)-2-(3-(3-(S)-hydroxypyrrolidinomethyl)phenyl)-amino-8-methoxy-pyrido[2,3-d]pyrimidin-7-one]
< 1 µM | < 0.1 µM | COn1c(=O)c(-c2c(Cl)cccc2Cl)cc2cnc(Nc3cccc(S(C)(=N)=O)c3)nc21 (centres unmarked) [Compound 161, 6-(2,6-Dichlorophenyl)-8-methoxy-2-(3-methyliminosulfonylphenyl)-amino-pyrido[2,3-d]pyrimidin-7-one]
< 10 µM | > 1 µM | O=c1ccc2cnc(Nc3ccccc3)nc2n1OC1CCCC1 [Compound 225]
< 10 µM | > 1 µM | COn1c(=O)c(-c2c(Cl)cccc2Cl)cc2cnc(Nc3ccc(Br)cc3)nc21 [Compound 191, 2-(4-Bromophenyl)amino-6-(2,6-dichlorophenyl)-8-methoxy-pyrido[2,3-d]pyrimidin-7-one]
< 1 µM | > 1 µM | COn1c(=O)c(-c2c(Cl)cccc2Cl)cc2cnc(Nc3cccc(CN4CCC(F)(F)C4)c3)nc21 [Compound 183, 6-(2,6-Dichlorophenyl)-2-(3-(3,3-difluoropyrrolidinomethyl)phenyl)-amino-8-methoxy-pyrido[2,3-d]pyrimidin-7-one]
< 1 µM | < 0.5 µM | COn1c(=O)c(-c2c(Cl)cccc2Cl)cc2cnc(Nc3ccc(OCC(O)CO)cc3)nc21 (centres unmarked) [Compound 93, 6-(2,6-Dichlorophenyl)-2-(4-(2,3-dihydroxypropyl)oxyphenyl) amino-8-methoxy-pyrido[2,3-d]pyrimidin-7-one]
< 1 µM | < 0.1 µM | COn1c(=O)c(-c2c(Cl)cccc2Cl)cc2cnc(Nc3ccc(CN4CCCC4)cc3)nc21 [Compound 101, 6-(2,6-Dichlorophenyl)-8-methoxy-2-(4-pyrrolidinomethylphenyl)-amino-pyrido[2,3-d]pyrimidin-7-one]
< 1 µM | < 0.1 µM | COn1c(=O)c(-c2c(Cl)cccc2Cl)cc2cnc(Nc3ccc(CC#N)cc3)nc21 [Compound 97, 2-(4-cyanomethylphenyl)-amino-6-(2,6-dichlorophenyl)-8-methoxy-pyrido[2,3-d]pyrimidin-7-one]
< 1 µM | < 0.5 µM | COn1c(=O)c(-c2c(Cl)cccc2Cl)cc2cnc(Nc3cc(C(=O)NCCOC(=O)[C@@H](N)C(C)C)n(C)c3)nc21 [Compound 112, 2-(5-(2-(2-(S)-2-Amino-3-methylbutanoyloxy)ethyl)aminocarbonyl-1-methyl-pyrrol-3-yl)-amino-6-(2,6-dichlorophenyl)-8-methoxy-pyrido[2,3-d]pyrimidin-7-one]
< 1 µM | < 0.1 µM | CCCN1CCN(c2ccc(Nc3ncc4cc(-c5c(Cl)cccc5Cl)c(=O)n(OC)c4n3)cc2)CC1 [Compound 204, 6-(2,6-Dichlorophenyl)-8-methoxy-2-(4-(4-propylpiperazino)phenyl)-amino-pyrido[2,3-d]pyrimidin-7-one]
< 1 µM | < 0.1 µM | COn1c(=O)c(-c2c(F)cccc2Cl)cc2cnc(Nc3ccc(N4CCOCC4)cc3)nc21 [Compound 136]
< 1 µM | < 0.1 µM | COn1c(=O)c(-c2c(F)cccc2Cl)cc2cnc(Nc3ccc(N4CCNCC4)c(Cl)c3)nc21 [Compound 199, 6-(2-Chloro-6-fluorophenyl)-2-(3-chloro-4-piperazinophenyl)-amino-8-methoxy-pyrido[2,3-d]pyrimidin-7-one]
< 1 µM | < 0.1 µM | COn1c(=O)c(-c2c(Cl)cccc2Cl)cc2cnc(Nc3ccc(CN4CC[C@H](O)C4)cc3)nc21 [Compound 180, 6-(2,6-Dichlorophenyl)-2-(4-(3-(S)-hydroxypyrrolidinomethyl)phenyl)-amino-8-methoxy-pyrido[2,3-d]pyrimidin-7-one]
< 1 µM | < 0.5 µM | O=c1c(-c2c(F)cccc2Cl)cc2cnc(Nc3ccc(N4CCOCC4)cc3)nc2n1OCC1CCCC1 [Compound 173]
< 1 µM | < 0.5 µM | COn1c(=O)c(-c2c(Cl)cccc2Cl)cc2cnc(Nc3cc(C(=O)N(C)CCOC(=O)C(C)(C)C)n(C)c3)nc21 [Compound 140, 6-(2,6-Dichlorophenyl)-8-methoxy-2-(5-N-(2-(2,2-dimethylpropanoyl)oxyethyl)-N-methyl-aminocarbonyl-1-methyl-pyrrol-3-yl)-amino-pyrido[2,3-d]pyrimidin-7-one]
< 10 µM | < 0.1 µM | COn1c(=O)c(-c2c(Cl)cccc2Cl)cc2cnc(Nc3ccc(CO)cc3)nc21 [Compound 144, 6-(2,6-Dichlorophenyl)-2-(4-hydroxymethylphenyl)-amino-8-methoxy-pyrido[2,3-d]pyrimidin-7-one]

Source: patent US8518958B2, “Pyrido [2,3-D] pyrimidines and their use as kinase inhibitors” (Forma Therapeutics, Inc., priority 2006, dated 2013)
